Results reported in patent US7776855B2, “Antimicrobial oxazolidinone prodrugs” (Janssen Pharmaceutica N.V., priority 2006, dated 2010).
≈ marks a conversion by molar mass, not a printed value. Where two headings read alike, the source gives them in different places.

Columns and labels:
[1] = Prodrug Solubility (visual inspection in buffer); type: physicochemical; settings: aqueous buffer, thermodynamic from solid
Procedure: One mg of each compound was diluted with at least 100 μl of the designated buffer, vortexed vigorously for approximately 1 minute, and visually inspected. Sodium citrate (40 mM) was buffered to pH 4 and phosphate-buffered saline was buffered to pH 7. Solutions with no remaining particles were recorded with a solubility ≧to the starting concentration. Compound suspensions were further diluted in 0.1 mL increments followed by vortexing as above, until the prodrug was dissolved. Solubilities of prodrugs ranged from 1.0 mg/ml to >10 mg/ml. The term “ND” means not determined.

[2] = Solubility of Compound 1 in pH 4 buffer (24 h shaking, HPLC); type: physicochemical; settings: aqueous buffer, thermodynamic from solid, ambient temperature
Procedure: The solubility of the active drug, Compound 1, was determined in a separate experiment in which an excess of the compound was added to pH 4 buffer. The mixture was shaken with a Burrell wrist action shaker at ambient temperature for 24 hours. Excess solute was removed by centrifugation, the supernatant was diluted with a suitable solvent, and the concentration of the compound was measured using HPLC. The solubility of Compound 1 at pH 4 was 0.007 mg/mL.

S. aureus Smith = experiment: Mouse Systemic Lethal Infection Model; type: in vivo; settings: Staphylococcus aureus, female Swiss Webster mice, infected intraperitoneally, three day survival, prodrug ED50 normalized to content of Compound 1
Procedure: Female Swiss Webster mice weighing between 20-25 g were infected intraperitoneally with approximately 5×10^5 colony forming units (CFU) S. aureus Smith in 7% mucin. One hour later, the animals were given prodrug or Compound 1 intravenously or orally in a dose volume of 0.1 mL/10 g body weight. Each group consisted of eight animals. The prodrugs were prepared immediately before dosing in 40 mM sodium citrate buffer, pH 4. Compound 1 was prepared in 20% HPβCD and warmed until dissolved (IV dosing) or in 0.5% methocel (PO dosing) as a suspension. The mice were observed over a three day period and ED50 values were calculated from the resulting % survival curves (Table 2). The term “ND” means not determined. The prodrug ED50 values were normalized to the content of Compound 1.

[3] = Pharmacokinetics of Prodrugs in Animal Models, all species tested (summary); type: in vivo, mice, rats, or dogs; settings: for PK parameters, normalized to the dose, compared with the respective parameters for Compound 1: all species tested (Table 3a-3d); for conversion of the prodrug form in vivo: all species tested, inferred from PK parameters
Procedure: Animals were weighed and given the prodrug intravenously (mice, rats, or dogs) or orally (mice). The prodrugs were prepared immediately before dosing in 40 mM sodium citrate buffer, pH 4. Compound 1 was prepared in 20% HPβCD and warmed until dissolved (IV dosing), or in 0.5% methocel as a suspension (PO dosing). At 0, 0.08, 0.25, 0.5, 1, 2, 4, 6, 8, and 24 hours, blood was removed (via cardiac puncture in euthanized mice, via orbital sinus puncture in anesthetized rats, or via cephalic vein in conscious dogs) and 200 µL of the plasma supernatant was immediately frozen (−70° C.).
On the day of analysis, the samples were thawed on ice and 100 μL was diluted with 200 μL of acetonitrile. The samples were vortexed and then centrifuged at 3000×g for 5 minutes to pellet the precipitated plasma proteins. The supernatant was analyzed by HPLC, or by LC-MS-MS. A standard curve was constructed by spiking a known quantity of Compound 1 into plasma and then performing serial dilutions in the range of 0.01 to 10 μg/mL. Pharmacokinetic (PK) parameters were calculated by WinNonlin Pro, version 3.1.
The term “ND” means not determined. The term “NA” means not applicable. The dose of each prodrug was normalized to the Compound 1 dose. The values of the PK parameters for the prodrug form for Compounds 4a and 21a are based on the resulting accumulation and elimination of Compound 1.

[4] = 40 mM sodium citrate buffer, Sodium citrate (40 mM) pH 4, read-out: Solubility Sodium Citrate
[5] = phosphate-buffered saline pH 7, read-out: Solubility Saline

| solubility at 1 min [1, 4] [µg/mL] | solubility at 1 min [1, 5] [µg/mL] | Compound | also measured |
| --- | --- | --- | --- |
| ≥ 2000 | ≥ 2000 | CC(=O)N(C[C@H]1CN(c2ccc(N3Cc4cn(C)nc4C3)c(F)c2)C(=O)O1)C(=O)OCOP(=O)(O)O [Compound 18a, Acetyl-{(R)-3-[3-fluoro-4-(2-methyl-2,6-dihydro-4H-pyrrolo[3,4-c]pyrazol-5-yl)-phenyl]-2-oxo-oxazolidin-5-ylmethyl}-carbamic acid phosphonooxymethyl ester] |  |
| ≥ 10000 | ≥ 10000 | CC(=O)N(C[C@H]1CN(c2ccc(N3Cc4cn(C)nc4C3)c(F)c2)C(=O)O1)C(=O)OCOC(=O)CN1CCNCC1 [Compound 4a, Piperazin-1-yl-acetic acid (acetyl-{(R)-3-[3-fluoro-4-(2-methyl-2,6-dihydro-4H-pyrrolo[3,4-c]pyrazol-5-yl)-phenyl]-2-oxo-oxazolidin-5-ylmethyl}-carbamoyloxy)-methyl ester] | PK parameters, normalized to the dose, compared with the respective parameters for Compound 1 [3]: similar; conversion of the prodrug form in vivo [3]: rapidly converted in vivo to Compound 1 |
| ≥ 7500 |  | CC(=O)N(C[C@H]1CN(c2ccc(N3Cc4cn(C)nc4C3)c(F)c2)C(=O)O1)C(=O)OC(C)OC(=O)CN1CCNCC1 (stereo partly drawn) [Compound 4b, Piperazin-1-yl-acetic acid 1-(acetyl-{(R)-3-[3-fluoro-4-(2-methyl-2,6-dihydro-4H-pyrrolo[3,4-c]pyrazol-5-yl)-phenyl]-2-oxo-oxazolidin-5-ylmethyl}-carbamoyloxy)-ethyl ester] |  |

The next lines start with the compound.

| Compound | solubility at 1 min [1, 4] [µg/mL] | solubility at 1 min [1, 5] [µg/mL] | also measured |
| --- | --- | --- | --- |
| CC(=O)NC[C@H]1CN(c2ccc(N3Cc4cn(C)nc4C3)c(F)c2)C(=O)O1 [Compound 1] |  |  | solubility at 24 h [2]: 7 µg/mL (≈ 0.0187 mM); ED50 (S. aureus Smith; dosed intravenously one hour later, read-out: ED50 (95% Fiducial Limits) IV): 3.3 mg/kg; ED50 (S. aureus Smith; dosed orally one hour later, read-out: ED50 (95% Fiducial Limits) PO): 3.5 mg/kg |
| CCOP(=O)(O)OCOC(=O)N(C[C@H]1CN(c2ccc(N3Cc4cn(C)nc4C3)c(F)c2)C(=O)O1)C(C)=O [Compound 21a, Acetyl-{(R)-3-[3-fluoro-4-(2-methyl-2,6-dihydro-4H-pyrrolo[3,4-c]pyrazol-5-yl)-phenyl]-2-oxo-oxazolidin-5-ylmethyl}-carbamic acid ethoxy-hydroxy-phosphoryloxymethyl ester] |  | ≥ 10000 | PK parameters, normalized to the dose, compared with the respective parameters for Compound 1 [3]: similar; conversion of the prodrug form in vivo [3]: rapidly converted in vivo to Compound 1; solubility at 1 min ([1]; Sodium citrate (40 mM) pH 4, read-out: Solubility Sodium Citrate): ≥ 10000 µg/mL |
| CNCC(=O)OCOC(=O)N(C[C@H]1CN(c2ccc(N3Cc4cn(C)nc4C3)c(F)c2)C(=O)O1)C(C)=O [Compound 10, Methylamino-acetic acid (acetyl-{(R)-3-[3-fluoro-4-(2-methyl-2,6-dihydro-4H-pyrrolo[3,4-c]pyrazol-5-yl)-phenyl]-2-oxo-oxazolidin-5-ylmethyl}-carbamoyloxy)-methyl ester] | ≥ 10000 | ≥ 10000 |  |
| CC(=O)N(C[C@H]1CN(c2ccc(N3Cc4cn(C)nc4C3)c(F)c2)C(=O)O1)C(=O)OCOC(=O)CN1CCN(C)CC1 [Compound 8, (4-Methyl-piperazin-1-yl)-acetic acid (acetyl-{(R)-3-[3-fluoro-4-(2-methyl-2,6-dihydro-4H-pyrrolo[3,4-c]pyrazol-5-yl)-phenyl]-2-oxo-oxazolidin-5-ylmethyl}-carbamoyloxy)-methyl ester] | ≥ 10000 | ≥ 10000 |  |
| CC(=O)N(C[C@H]1CN(c2ccc(N3Cc4cn(C)nc4C3)c(F)c2)C(=O)O1)C(=O)OCOC(=O)CN(C)C [Compound 5, Dimethylamino-acetic acid (acetyl-{(R)-3-[3-fluoro-4-(2-methyl-2,6-dihydro-4H-pyrrolo[3,4-c]pyrazol-5-yl)-phenyl]-2-oxo-oxazolidin-5-ylmethyl}-carbamoyloxy)-methyl ester] | ≥ 10000 | ≥ 10000 |  |
| CC(=O)N(C[C@H]1CN(c2ccc(N3Cc4cn(C)nc4C3)c(F)c2)C(=O)O1)C(=O)OCOC(=O)COP(=O)(O)O [Compound 24, Phosphonooxy-acetic acid (acetyl-{(R)-3-[3-fluoro-4-(2-methyl-2,6-dihydro-4H-pyrrolo[3,4-c]pyrazol-5-yl)-phenyl]-2-oxo-oxazolidin-5-ylmethyl}-carbamoyloxy)-methyl ester] | ≥ 5000 |  |  |
| CC(=O)N(C[C@H]1CN(c2ccc(N3Cc4cn(C)nc4C3)c(F)c2)C(=O)O1)C(=O)OCOC(=O)CN1CCOCC1 [Compound 6, Morpholin-4-yl-acetic acid (acetyl-{(R)-3-[3-fluoro-4-(2-methyl-2,6-dihydro-4H-pyrrolo[3,4-c]pyrazol-5-yl)-phenyl]-2-oxo-oxazolidin-5-ylmethyl}-carbamoyloxy)-methyl ester] | 2500 (≈ 4.35 mM) | 1000 (≈ 1.74 mM) |  |
